Reference: article PMC2765124 (Drug and alcohol dependence, 2009)
Entries after “also recorded” stand apart in the source; their conditions may differ.

Legend:
[1] = system: acetic acid-induced abdominal stretching in male ICR mice; assay: acetic acid stretching test; format: in vivo, mouse; conditions: for effect on abdominal stretching given alone: 3 mg/kg i.p.; for antinociceptive effect given alone (abdominal stretching): 1 h before acetic acid; for blockade of the antinociceptive effects of Δ9-THC: antagonist 3 mg/kg i.p. 10 min before Δ9-THC 3 mg/kg s.c.; for blockade of the antinociceptive effects of Δ9-THC by THCV: THCV 50 mg/kg s.c. with Δ9-THC 3.0 mg/kg s.c.
[2] = system: locomotor activity of male ICR mice; assay: spontaneous locomotor activity; format: in vivo, mouse; conditions: for % Time Immobile / Total Distance Traveled: 60 min before, 20 min, mean ± SEM
[3] = biological target: CB1 receptor (Rattus norvegicus, UniProt P20272); assay: cannabinoid receptor binding, displacement of [3H]-CP-55,940 from whole brain
Chain of CB1 receptor (P20272 whole entry): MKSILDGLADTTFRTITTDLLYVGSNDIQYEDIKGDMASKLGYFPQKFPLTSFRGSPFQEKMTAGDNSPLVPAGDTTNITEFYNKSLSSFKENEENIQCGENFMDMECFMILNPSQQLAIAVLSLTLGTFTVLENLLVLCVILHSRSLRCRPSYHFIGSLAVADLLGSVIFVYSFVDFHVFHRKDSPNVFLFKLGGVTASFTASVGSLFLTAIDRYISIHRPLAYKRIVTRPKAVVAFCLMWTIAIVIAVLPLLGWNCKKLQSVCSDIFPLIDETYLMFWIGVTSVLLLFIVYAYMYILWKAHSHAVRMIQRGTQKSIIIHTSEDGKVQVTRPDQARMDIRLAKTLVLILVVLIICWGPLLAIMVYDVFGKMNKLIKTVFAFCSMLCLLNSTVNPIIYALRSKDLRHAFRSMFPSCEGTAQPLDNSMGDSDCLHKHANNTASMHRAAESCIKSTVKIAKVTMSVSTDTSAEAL

SR144528
effect on abdominal stretching given alone [1]: did not significantly affect abdominal stretching behavior; also recorded: Neither

CCCCCc1cc(O)c2c(c1)OC(C)(C)c1ccc(C)cc1-2 [CBN, cannabinol]
antinociceptive effect given alone (abdominal stretching) ([1]; 20 mg/kg s.c.): not at 20 mg/kg
antinociceptive effect given alone (abdominal stretching) ([1]; 50 mg/kg s.c.): significant antinociceptive effects; also recorded: significantly suppressed the stretching response
minimal (required) dose that produced antinociception ([1]; s.c.): 50 mg/kg
effect on locomotor activity ([2]; 50 mg/kg s.c., 60 min before recording): failed to inhibit locomotor activity; also recorded: did not affect mobility
% Time Immobile ([2]; 50.0 mg/kg s.c.): 17.6 ± 2.9%
Total Distance Traveled ([2]; 50.0 mg/kg s.c.): 39.02 ± 7.75 m
affinity at the CB1 receptor, fold lower than the affinity of Δ9-THC [3]: 2–3 fold

CCCCCc1cc(O)c2c(c1)OC(C)(CCC=C(C)C)C=C2 (centres unmarked) [CBC, cannabichromene]
antinociceptive effect given alone (abdominal stretching) ([1]; high doses, s.c.): did not produce antinociceptive effects

Cc1c(C(=O)NN2CCCCC2)nn(-c2ccc(Cl)cc2Cl)c1-c1ccc(Cl)cc1 [rimonabant]
effect on abdominal stretching given alone [1]: did not significantly affect abdominal stretching behavior; also recorded: Neither
blockade of the antinociceptive effects of CBN ([1]; antagonist 3 mg/kg i.p. 10 min before CBN 50 mg/kg s.c.): blocked by rimonabant; also recorded: significantly blocked the antinociceptive effects
blockade of the antinociceptive effects of Δ9-THC [1]: blocked the antinociceptive effects
blockade of the antinociceptive effects of Δ9-THC ([1]; listed as Rimonabant): significantly blocked

CCCc1cc(O)c2c(c1)OC(C)(C)[C@@H]1CC=C(C)C[C@@H]21 [THCV, Δ^8-tetrahydrocannabivarin]
antinociceptive effect given alone (abdominal stretching) ([1]; 50 mg/kg s.c.): had no affect on the frequency of stretching behavior; also recorded: failed to elicit antinociceptive effects; also recorded: had no effects on its own
blockade of the antinociceptive effects of Δ9-THC by THCV [1]: blocked the antinociceptive effects of Δ^9-THC
blockade of the antinociceptive effects of Δ9-THC by THCV ([1]; listed as THC-V): significantly antagonized the antinociceptive effects

CCCCCc1cc(O)c2c(c1)OC(C)(C)[C@@H]1CCC(C)=C[C@@H]21 [Δ^9-THC, Δ^9-tetrahydrocannabinol]
ED50 ([1]; Mus musculus, read-out: ED50, suppression of abdominal stretching): 1.1 mg/kg
minimal (required) dose that produced antinociception ([1]; s.c.): 1 mg/kg
% Time Immobile ([2]; 1.0 mg/kg s.c.): 11.2 ± 2.2%
Total Distance Traveled ([2]; 1.0 mg/kg s.c.): 41.79 ± 2.63 m
% Time Immobile ([2]; 3.0 mg/kg s.c.): 21.5 ± 5.0%
Total Distance Traveled ([2]; 3.0 mg/kg s.c.): 43.59 ± 4.70 m
effect on locomotor activity ([2]; 3 mg/kg s.c., 60 min pretreatment, compared to vehicle): did not significantly interfere with locomotor activity
% Time Immobile ([2]; 10.0 mg/kg s.c.): 37.6 ± 9.2%
Total Distance Traveled ([2]; 10.0 mg/kg s.c.): 45.86 ± 7.76 m
% Time Immobile ([2]; 50.0 mg/kg s.c.): 49.0 ± 6.8 %
Total Distance Traveled ([2]; 50.0 mg/kg s.c.): 35.34 ± 3.61 m
effect on mobility ([2]; doses less than 50 mg/kg s.c.): did not impair mobility

C=C(C)[C@@H]1CCC(C)=C[C@H]1c1c(O)cc(CCCCC)cc1O [CBD, cannabidiol]
antinociceptive effect given alone (abdominal stretching) ([1]; high doses, s.c.): did not produce antinociceptive effects
